Where two headings read alike, the source gives them in different places.
How the values were obtained:
SK-MEL-28 (BRAF V600E) = experiment: Cell proliferation MTT assay; type: cell-based; conditions: Homo sapiens
Protocol: (§1) The synergism and antagonism (CI value) were determined and analyzed using CompuSyn 1.0.
(§2) For cytotoxicity test, normal NHDF (5000 cells/well) and NHEM cell line (3000 cells/well) were planted into 96-well plates. For cell proliferation assay, A375 (1500 cells/well), SK-MEL-28 (3000 cells/well), SK-MEL-2 (4000 cells/well), and HCT116 (1500 cells/well) were planted into 96-well plates, determined concentration of drug was added after culture for 24 h. The viability of the cells was detected within 72 h using MTT solution (5 mg/mL). The absorbance at 570/490 nm was quantified by the use of the microplate reader.

SK-MEL-2 (NRAS mut) = experiment: Cell proliferation MTT assay; type: cell-based; conditions: Homo sapiens, SK-MEL-2; MTT, 72 h; read-out: IC50
Protocol: as §1, §2

HCT116 (KRAS mut) = experiment: Cell proliferation MTT assay; type: cell-based; conditions: Homo sapiens, HCT-116; MTT, 72 h; read-out: IC50
Protocol: as §1, §2

A375 (BRAF V600E) = experiment: Cell proliferation MTT assay; type: cell-based; conditions: Homo sapiens
Protocol: as §1, §2

[1] = tested on: MAPK signaling pathway (phospho-CRAF, phospho-MEK1/2, phospho-ERK1/2); experiment: Western blotting of MAPK signaling pathway in cells
melanoma PDX = experiment: Patient-derived xenograft (PDX); type: in vivo; conditions: oral gavage; erianin, vemurafenib 50 mg/kg once a day; cobimetinib 5 mg/kg twice a week; within 78 days
Protocol: Fig. 7 Erianin exerts antitumor efficacy in melanoma and colorectal cancer in vivo. a Tumor pharmacodynamic assay was performed in tumor-bearing NPG mice (tumor has been passaged from melanoma patient to mice for three generations). The photographs show tumors from melanoma PDX mice treated with vehicle or drugs. b The effect of erianin on the volume of PDX tumors over time (within 78 days) was plotted. Vehicle, erianin (50 mg/kg, once a day), vemurafenib (50 mg/kg, once a day), erianin and vemurafenib combination therapy, cobimetinib (5 mg/kg, twice a week) or vemurafenib and cobimetinib combination therapy (once a day and twice a week, respectively) were administered by oral gavage, n = 8 in each group. Tumor volume was measured once a week. […] Scale bars: 20 μm. One-way ANOVA test. ***p < 0.001. e Antitumor efficacy of erianin with or without immunity using B16F10 cell xenograft in C57BL-6J mouse. f, g Trend of tumor volume over time and tumor weight was measured after treatment on the last day of the study.

[2] = tested on: SK-MEL-28 (BRAF V600E) CDX; experiment: Cell-derived xenograft (CDX); conditions: 50 mg/kg, oral gavage, vs vehicle-treated group
Protocol: (§3) Tumor volume (mm^3) = (length × width × height) × 0.52. SK-MEL-2: n = 10; A375 and SK-MEL-28: n = 8; HCT116: n = 9. b The photographs show tumors from CDX mice treated with vehicle, erianin, vemurafenib, or the combination. c The weight of the tumors was quantified and expressed as the treatment groups compared with the vehicle-treated group. […] The tissue lysates were prepared from CDX tumor tissues in each treatment group. […] Each point represents the IOD values of four quantified data from one mouse. Scale bars: 50 μm.
(§4) The animal experiments were performed according to the guidelines approved by the Zhengzhou University Institutional Animal Care and Use Committee. A375 cell line (1 × 10^7 cell/mouse), SK-MEL-28 cell line (5 × 10^6 cell/mouse), SK-MEL-2 cell (5 × 10^6 cell/mouse), and HCT116 cell line (1 × 10^7 cell/mouse) were injected subcutaneously into the NOD-SCID mice (Vital River Labs, Beijing, China). For the melanoma PDX mice model, the tumor was taken after surgical operation and implanted into the NPG (Vital River Labs, Beijing, China) mice under a sterile environment. For the colorectal cancer PDX mice model, NOD-SCID mice were selected as carriers for tumor growth. The measurement of tumor size was performed twice a week using vernier caliper and the calculation of tumor volume was done according to tumor volume (mm^3) = length × width × height × 0.52.

A375 (BRAF V600E) CDX = experiment: Cell-derived xenograft (CDX); conditions: 50 mg/kg, oral gavage, vs vehicle-treated group
Protocol: as §3, §4

HCT116 (KRAS mut) CDX = experiment: Cell-derived xenograft (CDX); type: in vivo, NOD-SCID mice; conditions: 50 mg/kg, oral gavage
Protocol: as §3, §4

SK-MEL-2 (NRAS mut) CDX = experiment: Cell-derived xenograft (CDX); type: in vivo, NOD-SCID mice; conditions: 50 mg/kg, oral gavage
Protocol: as §3, §4

[3] = SK-MEL-28, MTT, 72 h, read-out: IC50
[4] = A-375, MTT, 72 h, read-out: IC50

IC50 (SK-MEL-28 (BRAF V600E); [3]) [nM]	IC50 (A375 (BRAF V600E); [4]) [nM]	Compound	IC50 (SK-MEL-2 (NRAS mut)) [nM]	IC50 (HCT116 (KRAS mut)) [nM]	also measured
129 ± 28.3	60.9 ± 14.4	Cn1cnc2c(F)c(Nc3ccc(Br)cc3F)c(C(=O)NOCCO)cc21 [Binimetinib]	240 ± 81.2	509 ± 145	
		CC(C)(C)c1nc(-c2cccc(NS(=O)(=O)c3c(F)cccc3F)c2F)c(-c2ccnc(N)n2)s1 [Dabrafenib]	> 60000	> 18000	IC50 (SK-MEL-28 (BRAF V600E); SK-MEL-28, 72 h): 41 ± 15.5 nM; IC50 (A375 (BRAF V600E); A-375, 72 h): 36.7 ± 9.7 nM
6.5 ± 1.2	9.5 ± 3.9	COC(=O)N[C@@H](C)CNc1nccc(-c2cn(C(C)C)nc2-c2cc(Cl)cc(NS(C)(=O)=O)c2F)n1 [Encorafenib]	> 9000	> 2000	
		CNc1ncc2cc(-c3cc(NC(=O)NCCC(C)(C)C)c(F)cc3C)c(C)nc2n1 [LY3009120]			kinase activity of CRAF (phosphorylation of CRAF and MEK1/2) ([1]; low dose, 24 h): induced kinase activity of CRAF at a low dose
1.9 ± 0.2	2.2 ± 0.8	CC(=O)Nc1cccc(-n2c(=O)n(C3CC3)c(=O)c3c(Nc4ccc(I)cc4F)n(C)c(=O)c(C)c32)c1 [Trametinib]	50.6 ± 1.7	22.1 ± 9.2	

Compound	IC50 (SK-MEL-28 (BRAF V600E); [3]) [nM]	IC50 (A375 (BRAF V600E); [4]) [nM]	IC50 (SK-MEL-2 (NRAS mut)) [nM]	IC50 (HCT116 (KRAS mut)) [nM]	also measured
O=C(c1ccc(F)c(F)c1Nc1ccc(I)cc1F)N1CC(O)([C@@H]2CCCCN2)C1 [Cobimetinib]	2.6 ± 0.4	3.2 ± 1.3	119 ± 38.2	51.3 ± 8.9	phosphorylation of MEK1/2 ([1]; SK-MEL-2 and HCT116, 24 h): increased phosphorylation of MEK1/2; phosphorylation of ERK1/2 ([1]; both BRAF V600E and RAS mutant cells, 24 h): inhibits phosphorylation of ERK1/2 effectively; tumor volume (melanoma PDX): no differences between erianin and cobimetinib
CCCS(=O)(=O)Nc1ccc(F)c(C(=O)c2c[nH]c3ncc(-c4ccc(Cl)cc4)cc23)c1F [Vemurafenib, reference compound]	344 ± 36.4	314 ± 73.7	> 40000	> 20000	tumor volume [2]: significant decrease; tumor volume (A375 (BRAF V600E) CDX): significant decrease; tumor volume and tumor weight (HCT116 (KRAS mut) CDX): poor effect; tumor volume and tumor weight (SK-MEL-2 (NRAS mut) CDX): poor effect; activation of MAPK signaling pathway (CRAF, MEK1/2, ERK1/2) ([1]; SK-MEL-2 and HCT116, 24 h): induced the paradoxical activation of MAPK signaling pathway; tumor volume (melanoma PDX): did not suppress tumor volume significantly
